In ChEMBL document CHEMBL1122580, “Adenosine deaminase inhibitors. Synthesis of deaza analogues of erythro-9-(2-hydroxy-3-nonyl)adenine” (J Med Chem, 1984):

Columns and labels:
[1] = biological target: T1, Adenosine deaminase (Bos taurus, UniProt P56658); assay: Binding affinity against calf intestine adenosine deaminase enzyme
T1 sequence (P56658 whole entry): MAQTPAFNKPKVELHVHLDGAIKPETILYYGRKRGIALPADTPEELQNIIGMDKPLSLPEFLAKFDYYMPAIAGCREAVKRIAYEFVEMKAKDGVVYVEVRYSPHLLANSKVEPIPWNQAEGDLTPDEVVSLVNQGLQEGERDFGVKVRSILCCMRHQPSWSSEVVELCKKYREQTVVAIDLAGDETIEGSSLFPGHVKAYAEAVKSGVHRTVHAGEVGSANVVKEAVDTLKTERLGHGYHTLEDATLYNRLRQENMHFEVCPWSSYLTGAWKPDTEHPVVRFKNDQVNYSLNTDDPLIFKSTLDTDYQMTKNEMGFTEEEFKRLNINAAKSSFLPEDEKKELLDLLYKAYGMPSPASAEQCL

[2] = biological target: T1, Adenosine deaminase; assay: Binding affinity against calf intestine adenosine deaminase enzyme; Not Active

| Compound | Ki [1] | Ki [2] |
| --- | --- | --- |
| Nc1ccnc2c1ncn2[C@@H]1O[C@H](CO)[C@@H](O)[C@H]1O | 660 nM |  |
| CCCCCCC(C(C)O)n1cnc2c(N)nccc21 (stereo not given) | 10 nM |  |
| CCCCCCC(C(C)O)n1cnc2c(N)ccnc21 (stereo not given) | 160 nM |  |
| Nc1nccc2c1ncn2[C@@H]1O[C@H](CO)[C@@H](O)[C@H]1O | 360000 nM |  |
| OC[C@H]1O[C@@H](n2cnc3cnccc32)[C@H](O)[C@@H]1O |  | Not Active |
| CCCCCCC(C(C)O)n1cnc2cncnc21 (stereo not given) | 840 nM |  |
| CCCCCCC(C(C)O)n1cnc2cnccc21 (stereo not given) | 120 nM |  |
| OC[C@H]1OC(n2cnc3cccnc32)[C@H](O)[C@@H]1O (stereo not given in full) | 42000 nM |  |
| CCCCCC[C@@H]([C@@H](C)O)n1cnc2c(N)ncnc21 [EHNA] | 7 nM |  |
| OC[C@H]1O[C@@H](n2cnc3cncnc32)[C@H](O)[C@@H]1O [NEBULARINE] | 15000 nM |  |
